Source: publication PMC5688156, “The natural product carolacton inhibits folate-dependent C1 metabolism by targeting FolD/MTHFD” (Nature Communications, 2017)

Legend:
ecFolD Q98H = biological target: T1, ecFolD Q98H (Escherichia coli, UniProt P24186, Q98H); assay: SPR binding to ecFolD Q98H; set-up: species or system E. coli
T1 construct: His-tag (TEV-cleavable, vector pHis-TEV); made in house; host or cells: E. coli BL21 (DE3)
Procedure: (§1) All surface plasmon resonance (SPR) experiments described in this study were performed on a Biacore X100 system. Different FolDs with or without His-tag were coupled on CM5 sensor chips (GE Healthcare) by the amine coupling method using a kit from GE Healthcare Life Sciences (Freiburg, Germany). A pH scouting process was performed before protein immobilization to test the most appropriate buffer and the protein concentration for protein coupling. Finally, 20 μg/mL of ecFolD in 10 mM maleate buffer (pH 6.8), 30 μg/mL of ecFolD Q98H in 10 mM maleate buffer (pH 6.3), 40 μg/mL of ecFolD K54N in 10 mM maleate buffer (pH 5.8), 20 μg/mL of spFolD in 10 mM maleate buffer (pH 6.0) and 15 μg/mL of MTHFD2 (His-tag cleaved) in 10 mM maleate buffer (pH 6.8) were used for coupling. In the protein immobilization procedure, the contact time was calculated based on the pH scouting results to achieve ~3000–5000 relative resonance units (RU). The buffer used in the SPR assays was 1× HBS-P buffer (10 mM HEPES pH 7.4, 150 mM NaCl, 0.05% Tween 20). The 1 mM stock solution of carolacton was prepared in 1× HBS-P buffer and diluted to different concentration ranges by two-fold serial dilution. In the SPR assay, the association time was 180 s and the dissociation time was 600 s. Data analysis was performed using the Biacore evaluation software. […]

KB-3.1 = assay: Cytotoxicity screening, KB-3.1 (MTT); assay type: cell-based, human; details: for EC50: 5 d treatment, MTT
Procedure: Half maximal effective concentrations (EC50) on human cancer cell lines were determined as described elsewhere. Human cancer cell lines were maintained as recommended by the depositor (German Collection of Microorganisms and Cell Cultures, DSMZ) and were treated for 5 d with carolacton in serial dilution. The viability of adherent cell types, HCT-116 (ACC 581), KB-3.1 (ACC-158) and KB-V.1 (ACC-149) was assessed by the addition of MTT tetrazolium salt and absorbance measurement at 570 nm. Histiocytic lymphoma U-937 cells (ACC-5) were maintained in RPMI 1640 medium and transferred into folate-free medium prior to the assay. Cell viability was determined by measuring alamar blue fluorescence emission at 590 nm. The values were referenced and EC50 values were determined by sigmoidal curve fitting. The cell lines KB-3.1 and KB-V.1 are originally derived from HeLa, whereas the latter is an MDR subclone of KB-3.1. They were used to directly compare the activity of carolacton on an mdr1 overexpressing and a sensitive cell line.

ecFolD K54N = biological target: T2, ecFolD K54N (Escherichia coli, UniProt P24186, K54N); assay: SPR binding to ecFolD K54N; set-up: species or system E. coli; details: K54N mutant
T2 construct: His-tag (TEV-cleavable, vector pHis-TEV); made in house; host or cells: E. coli BL21 (DE3)
Procedure: as §1

Question: With `CO[C@H](CC(=O)O)[C@@H](C)C(=O)[C@H](C)/C=C(\C)[C@H]1OC(=O)[C@H](O)[C@H](O)/C=C/[C@H](C)CCC[C@@H]1C` [carolacton] as the molecule, how does the Kd (ecFolD Q98H) read?
Answer: 20 µM

Question: What about the koff (ecFolD Q98H) of the same molecule?
Answer: 0.608 s⁻¹

Question: And the EC50 (KB-3.1)?
Answer: 11.3 ± 3.6 µM

Question: And the EC50 (KB-3.1; Homo sapiens, KB 3-1, 120 h)?
Answer: 11 µM

Question: What about the Maximum inhibition (KB-3.1; inhibition of cell growth, 5 d) of the same molecule?
Answer: >80%

Question: What about the “binding by SPR” value (ecFolD K54N) of the same molecule?
Answer: does not bind
